Laboratory results published in publication PMC3261883, “Structure of S. aureus HPPK and the Discovery of a New Substrate Site Inhibitor” (PLoS ONE, 2012).
In brackets after ≈: the same amount, converted by molar mass. Several values for one entry are separate records, joined by “and”; a condition that tells them apart may be missing. Equal values may be shown once. Read-outs that look alike come from different tables or passages of the source.

Key:
SaHPPK [1] = biological target: T1, SaHPPK (Staphylococcus aureus, UniProt A0A0H3JXR3); assay: biochemical; assay type: binding
SaHPPK [2] = biological target: T1, SaHPPK; assay: KinaseGlo luminescent biochemical assay of HPPK activity
[3] = parameters: method as in PMID 17511860; conditions: in vivo mouse model; cited from earlier work
SaHPPK [4] = biological target: T1, SaHPPK; assay: Surface plasmon resonance (SPR) with biotinylated SaHPPK on NeutrAvidin chip; assay type: binding
SaHPPK [5] = assay: Differential scanning fluorimetry (DSF) assay for ligand binding; parameters: species or system Staphylococcus aureus; conditions: for increase in unfolding temperature (Tm): saturating ligand
Experimental: A 96-well plate containing solutions of 2–5 µM SaHPPK, 10× Sypro orange dye and 500 µM of test compound in buffer (50 mM HEPES (pH 8.0), 1% sorbitol, 2.0 mM DTT, 10 mM MgCl2) was heated from […] at a rate of 1.0 K min^−1. The fluorescence intensity was measured with excitation/emission wavelengths of 583/610 nm. Tm and ΔTm values were determined from the melting curves obtained.

[6] = Solubility estimated from ITC experiments; assay type: physicochemical; conditions: ITC buffer, estimated assuming 1:1 binding stoichiometry
SaHPPK [7] = biological target: T1, SaHPPK; assay type: binding
E. coli = E. coli cell-based growth inhibition assays; conditions: data not shown
B. anthracis DHPS = conditions: co-crystallisation; cited from earlier work
EcHPPK = conditions: cited from earlier work
E. coli HPPK = conditions: read-out: Km for the E. coli enzyme; different assays; cited from earlier work
[8] = ITC, 298 K, in the presence of 1 mM AMPCPP
[9] = ITC, 298 K, ligand alone, read-out: K d ITC
[10] = SPR steady-state, 293 K, ligand alone, read-out: K d SPR
[11] = in the absence of Mg2+, data not shown
[12] = SPR, 1:1 kinetic interaction model
[13] = fluorescence-based methods, in the presence of Mg2+, read-out: binding affinity (K d) of EcHPPK
[14] = read-out: dissociation constant for EcHPPK

T1 sequence (A0A0H3JXR3 entry or part of it): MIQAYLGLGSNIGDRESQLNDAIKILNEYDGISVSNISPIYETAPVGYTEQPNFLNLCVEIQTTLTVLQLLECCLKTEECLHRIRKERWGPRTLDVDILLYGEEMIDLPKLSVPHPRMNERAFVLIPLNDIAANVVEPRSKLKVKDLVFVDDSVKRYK

Nc1nc2nc(S)[nH]c2c(=O)[nH]1 [8-mercaptoguanine]
N (binding stoichiometry) (SaHPPK [1]; [8]): 0.96±0.09
TΔS (SaHPPK [1]; [8]): -43.5 ± 6.28 kJ/mol
ΔG (SaHPPK [1]; [8]): -28.5 ± 0.42 kJ/mol
ΔH (SaHPPK [1]; [8]): -72 ± 5.86 kJ/mol
Kd (SaHPPK [1]; ITC, 298 K, in the presence of 1 mM AMPCPP, read-out: K d ITC): 11.3 ± 2.3 µM
N (binding stoichiometry) (SaHPPK [1]; ITC, 298 K, ligand alone): 1.00±0.06
TΔS (SaHPPK [1]; ITC, 298 K, ligand alone): -54 ± 14.6 kJ/mol
ΔG (SaHPPK [1]; ITC, 298 K, ligand alone): -28 ± 0.84 kJ/mol
ΔH (SaHPPK [1]; ITC, 298 K, ligand alone): -82 ± 14.2 kJ/mol
Kd (SaHPPK [1]; [9]): 12.8 ± 3.4 µM
ligand efficiency (SaHPPK [1]; K d ∼13 µM over 12 heavy atoms): 2.3 kJ/heavy atom
Kd (SaHPPK [1]; absence of cofactor, read-out: equilibrium dissociation constant Kd, summary value from ITC and SPR): ~13 µM and ~12 µM
IC50 (SaHPPK [2]; HMDP 0.3 µM, ATP 0.2 µM, read-out: IC50 for inhibition of SaHPPK): 41 µM and ~41 µM
antiviral activity and toxicity [3]: Antiviral activity,without significant toxicity
times more tightly bound than HMDP (SaHPPK [4]): ~10 times
Kd (SaHPPK [4]; SPR steady-state, 293 K, in the presence of 5 mM ATP, read-out: K d SPR): 8.1 ± 1.6 µM
Kd (SaHPPK [4]; [10]): 10.8 ± 0.4 µM
increase in Tm compared to apo (SaHPPK [5]; 500 µM ligand, 5 µM enzyme): 3.4 °C
solubility [6]: ~300 µM (≈ 55 µg/mL)
K d indicated by NMR exchange regime (SaHPPK [7]): low µM range
growth inhibition (E. coli): did not observe growth inhibition
binding and inhibition of B. anthracis DHPS (B. anthracis DHPS): bind to, but not inhibit

Nc1ncnc2c1ncn2[C@@H]1O[C@H](COP(=O)(O)OP(=O)(O)O)[C@@H](O)[C@H]1O [ADP]
Kd (SaHPPK [4]; [10]): 760 ± 16 µM

Nc1ncnc2c1ncn2C1OC(COP(=O)(O)CP(=O)(O)OP(=O)(O)O)C(O)C1O (stereo not drawn) [AMPCPP, α,β-methylene adenosine 5′-triphosphate]
fold tighter binding than ATP (SaHPPK [1]; ITC affinity ratio): approximately 10 fold
N (binding stoichiometry) (SaHPPK [1]; ITC, 298 K, ligand alone): 1.06±0.12
TΔS (SaHPPK [1]; ITC, 298 K, ligand alone): 5.44 ± 4.18 kJ/mol
ΔG (SaHPPK [1]; ITC, 298 K, ligand alone): -31.4 ± 0.84 kJ/mol
ΔH (SaHPPK [1]; ITC, 298 K, ligand alone): -26.4 ± 4.18 kJ/mol
Kd (SaHPPK [1]; [9]): 3.1 ± 1.2 µM
binding by ITC (SaHPPK [1]; [11]): no significant binding
Kd (SaHPPK [4]; [10]): 7.7 ± 0.4 µM
k a (SaHPPK [4]; [12]): 8.8±1.3×10^4 M^−1 s^−1
k d (SaHPPK [4]; [12]): 0.5 ± 0.1 s⁻¹
Kd (SaHPPK [4]; SPR, from k d/k a ratio, read-out: K d from kinetic interaction model): 5.4 ± 0.3 µM
Kd (EcHPPK; [13]): 0.08 to 0.45 µM
Kd (EcHPPK; [14]): 0.45 µM
increase in unfolding temperature (Tm) (SaHPPK [5]): 11 °C

Nc1ncnc2c1ncn2[C@@H]1O[C@H](COP(=O)(O)O)[C@@H](O)[C@H]1O [AMP]
Kd (SaHPPK [4]; [10]): 4900 ± 1100 µM

Nc1ncnc2c1ncn2[C@@H]1O[C@H](COP(=O)(O)OP(=O)(O)OP(=O)(O)O)[C@@H](O)[C@H]1O [ATP]
N (binding stoichiometry) (SaHPPK [1]; ITC, 298 K, ligand alone): 0.98±0.11
TΔS (SaHPPK [1]; ITC, 298 K, ligand alone): -1.3 ± 2.1 kJ/mol
ΔG (SaHPPK [1]; ITC, 298 K, ligand alone): -25.9 ± 0.42 kJ/mol
ΔH (SaHPPK [1]; ITC, 298 K, ligand alone): -27.2 ± 1.7 kJ/mol
Kd (SaHPPK [1]; [9]): 31 ± 4.5 µM
binding by ITC (SaHPPK [1]; [11]): no significant binding
Km (SaHPPK [2]; KinaseGlo assay, read-out: Km app): 10.8 ± 2.5 µM
Kd (SaHPPK [4]; [10]): ~45 µM and 45 µM
Kd (EcHPPK; [13]): 2.6 to 4.5 µM
Kd (EcHPPK; [14]): 2.6 µM
increase in unfolding temperature (Tm) (SaHPPK [5]): 6 °C

Nc1nc2c(c(=O)[nH]1)N=C(CO)CN2 [HMDP, 6-hydroxymethyl-7,8-dihydropterin]
N (binding stoichiometry) (SaHPPK [1]; [8]): 1.23±0.15
TΔS (SaHPPK [1]; [8]): -13 ± 3.8 kJ/mol
ΔG (SaHPPK [1]; [8]): -31 ± 0.84 kJ/mol
ΔH (SaHPPK [1]; [8]): -43.9 ± 4.18 kJ/mol
Kd (SaHPPK [1]; K d ITC, ITC, 298 K, in the presence of 1 mM AMPCPP): ~4 µM and 4 µM
binding by ITC (SaHPPK [1]; in the presence of the inhibitor 8-mercaptoguanine): could not be detected
Km (E. coli HPPK): 0.7 to 1.6 µM
Kd (SaHPPK [4]; K d SPR, SPR steady-state, 293 K, in the presence of AMPCPP): 3.6 ± 0.3 µM
Kd (SaHPPK [4]; K d SPR, SPR steady-state, 293 K, ligand alone): ~100 µM and 100 µM
Kd (EcHPPK; in the presence of Mg2+ and AMPCPP, read-out: binding affinity of EcHPPK): 0.036 to 0.17 µM

Nc1nc2nc[nH]c2c(=O)[nH]1 [guanine]
affinity by SPR (SaHPPK [4]; data not shown): undetectable

Mg-GTP
affinity of EcHPPK, fold less than for Mg-ATP (EcHPPK): 260 fold
